We go through 80 molecules from the METLIN SMRT retention time set (Domingo-Almenara et al. 2019).

This data set is described as follows: gradient 5% acetonitrile 3 min, to 50% in 2 min, to 85% in 15 min, held 3 min, 100 µL/min. To be noted: column: Zorbax Extend-C18 2.1 x 50 mm; eluents: water / acetonitrile, 0.1% formic acid. Put shortly:
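Over 3 months, pure standards in mixtures of ~100 molecules were run by HPLC coupled to a quadrupole time-of-flight mass spectrometer in positive and negative ionization mode. The column was a Zorbax Extend-C18 (2.1 × 50 mm, 1.8 μm) at 100 μL/min, eluted with water and acetonitrile each holding 0.1% formic acid, with 40 μL dead and 900 μL dwell volumes. Retention time was determined from adduct peaks chosen by software and checked manually.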
`Cc1cccc(-c2nc3nc(C)cc(Nc4cccc5nsnc45)n3n2)c1` had an RP-LC retention time of 984 s.

Take `CCNc1nc(C)cc(N2CCN(C(=O)Nc3cc(C)ccc3C)CC2)n1`: the RP-LC retention time was determined as 668 s.

`Cc1cc(C)c2c(N3CCCC3)nc(C(=O)N3CCN(c4ccccn4)CC3)nc2n1`: the RP-LC retention time was determined as 1080 s. The same measure for `O=C(O)C1CCN(c2ncnc3nc[nH]c23)CC1`: 548 s; for `CC(C)CCCC(C)N` (stereo not given): 641 s; for `Cc1nc(-c2csc(S(=O)(=O)N3CCCC(C(=O)NCCc4sccc4C)C3)c2)no1` (stereo not given): 932 s. In turn, `O=C(NCc1ccco1)c1ccc2ccnc(N3CCN(c4ccc(Cl)cc4)CC3)c2c1` yielded an RP-LC retention time of 858 s. Take `O=c1ccc(-c2ccc(F)cc2)nn1Cc1nc(-c2cccc(Cl)c2)no1`: the RP-LC retention time worked out at 1090 s.

`CC(C)c1cc(C(=O)NC2CCCCCC2)n[nH]1` yielded an RP-LC retention time of 836 s. The same measure for `O=C(Nc1ccc2c(c1)OCCO2)C1CCCN(c2nnc3c(Cl)cccn23)C1` (stereo not given): 709 s. As for `O=C(Nc1ccccc1Br)N1CCN(CCn2c(C(F)(F)F)nc3cccnc32)CC1`, the RP-LC retention time worked out at 657 s.

Molecule `CC1CCCN(c2ccn3c(=O)n(CC(=O)NCc4ccc(Cl)cc4)nc3n2)C1` (stereo not given) returned an RP-LC retention time of 821 s. Take `CCNc1cc(N2CCC(CCC(=O)N3CCCC3)CC2)ncn1`: the RP-LC retention time amounted to 608 s.

`C[C@@H]1CN(C(=O)NCc2ccco2)C[C@H]1c1nc(-c2ccncc2)no1`: the RP-LC retention time came out at 676 s.

As to `COc1ccc(OCc2noc(CNS(=O)(=O)CCN3C(=O)CCCC3=O)n2)cc1`, the RP-LC retention time came out at 693 s. The same measure for `Cc1cc2oc(=O)c(C)c(C)c2c2c1C(=O)CC(c1ccc3c(c1)OCO3)O2` (stereo not given): 1110 s.

Molecule `CCc1cccc(NC(=O)Cc2nnc3cc(-c4nc(C(C)C)no4)ccn23)c1` gave an RP-LC retention time of 918 s.

For the molecule `CCN1CCN(CCNC(=O)Cn2c(=O)c3cccn3c3ccc(F)cc32)CC1`, the RP-LC retention time was 589 s. With `CCOC(=O)N1CCN(c2ncc(S(=O)(=O)c3ccccc3)c(N)n2)CC1` the figure was 821 s; with `CCn1ccc2cc(S(=O)(=O)N3CCCC(C(=O)NCCCOC)C3)ccc21` (stereo not given), 804 s; with `COc1ccc(-c2noc(C3CCCN3C(=O)Nc3ccc4c(c3)OCO4)n2)cc1` (stereo not given), 884 s.

In turn, `CCc1cc(=O)n(CC(=O)N2CCN(c3ccccc3F)CC2)c(N2CCOCC2)n1` returned an RP-LC retention time of 761 s.

`COc1ccc(-c2cc3c4nnc(CCC(=O)NCc5ccco5)n4ccn3n2)cc1` came in with an RP-LC retention time of 665 s. With `CC(C)CCNC(=O)C1CCCN(c2nc3ccsc3c(=O)n2-c2ccc(F)cc2)C1` (stereo not given) the figure was 884 s; with `COc1ccc(-c2ccnc3nc(CC(C)C)nn23)c(F)c1`, 904 s; with `O=C(Nc1ccc2c(c1)OCO2)c1nnc(C2CCCN2C(=O)NCc2ccc(F)cc2)s1` (stereo not given), 854 s. Take `O=C(NCCc1csc(-c2cccs2)n1)C1CCN(C(=O)C2CCCCC2)CC1`: the RP-LC retention time was 817 s. With `COc1ccccc1N1CCN(C(=O)Cn2ncc3c(c2=O)N(C)C(=O)CS3)CC1`, the RP-LC retention time came to 661 s.

In turn, `COCCn1cc(CC(=O)NC2CCCCC2)c2cccnc21` showed an RP-LC retention time of 700 s. The same measure for `Cc1ccc2c(c1)N(S(C)(=O)=O)CCC(C(=O)Nc1ccc(C(F)(F)F)cc1)O2` (stereo not given): 1090 s. Molecule `O=C(Nc1ccc2c(c1)CCCN2S(=O)(=O)c1ccccc1)OCc1ccccc1` came in with an RP-LC retention time of 949 s.

In turn, `O=C(NCC1CCN(C(=O)c2cc3ccccc3o2)CC1)Nc1c(F)cccc1F` returned an RP-LC retention time of 729 s. The same measure for `COc1cccc(CN(C)C2CCc3nn(CC4CC4)c(=O)n3CC2)n1` (stereo not given): 587 s; for `CCOC(=O)C1CCN(C(=O)CCc2nc(-c3ccc(N4CCCC4)cc3)no2)CC1`: 1030 s; for `CCCS(=O)(=O)N1CCC(F)(F)C(COCc2cccnc2)C1` (stereo not given): 656 s. The same measure for `O=C(CCn1cnc2cc(-c3noc(/C=C/c4ccccc4Cl)n3)ccc21)N1CCOCC1`: 794 s; for `O=C(CC1CCCCC1)Nc1ccc(-c2cn3cccnc3n2)cc1`: 688 s. For `CC(NC(=O)c1cc(-c2ccccc2)cn1C)c1cccnc1` (stereo not given), the RP-LC retention time stood at 662 s. Molecule `CCC(=O)Nc1ccc2c(c1)nc(CN1CCCC1)n2C(C)C` registered an RP-LC retention time of 581 s. The same measure for `Cc1ccc(CNC(=O)C2(C)Cn3nc(C(=O)NCc4cccc(C)c4)cc3C(=O)N2C)cc1` (stereo not given): 824 s; for `O=C(CN1CCC(c2nc(-c3cccs3)no2)CC1)NCc1ccccc1`: 672 s; for `O=C(NC1CCN(Cc2ccccc2)CC1)C1CCCN(c2ncc(-c3ccccc3)cn2)C1` (stereo not given): 720 s. With `O=C(Nc1cnc(N2CCCCCC2)nc1)C1CCCC1` the figure was 844 s.

The molecule `COC(=O)c1ccc2c(=O)n(-c3cccc(Cl)c3)c(N3CCOCC3)nc2c1` gave an RP-LC retention time of 998 s.

`CCc1cccc(C)c1N(C(=O)Cn1c(COC)nc2ccccc21)C(C)COC` (stereo not given) displayed an RP-LC retention time of 850 s. Take `CC(C)c1nn2c(S(=O)(=O)NCc3cccs3)c(C(C)C)nc2s1`: the RP-LC retention time came out at 966 s.

In the case of `Cc1ccc(CCNC(=O)c2cc3n(n2)CC(C)(C(=O)NCc2ccccc2)N(C)C3=O)cc1` (stereo not given), the RP-LC retention time came out at 815 s.

`COc1ccc(-c2nc3cc(C)ccn3c2NC(=O)c2ccc(OC)cc2OC)cc1` gave an RP-LC retention time of 706 s.

Consider `O=C1NCCCCCCN[C@H]2C[C@H](C(=O)N3CCc4ccccc4C3)C[C@@H]12`, for which the RP-LC retention time is 612 s.

Turning to `O=C(Cn1nc2c3cc(F)ccc3ncn2c1=O)Nc1ccc(Br)cc1`, the RP-LC retention time amounted to 745 s. With `COc1ccc(CN2C(=O)CN(C3CCCCC3)C(=O)C2c2cccs2)cc1` (stereo not given) the figure was 915 s; with `O=C1CCCC(=O)C1C(=O)c1ccc(C(F)(F)F)cc1[N+](=O)[O-]`, 1070 s. With `CCOc1ccccc1CNC(=O)CCc1nnc2c3cc(-c4ccc(OC)cc4)nn3ccn12` the figure was 797 s.

The molecule `CN(CCc1noc(COc2cccc(C(F)(F)F)c2)n1)C(=O)c1cccs1` showed an RP-LC retention time of 941 s. As for `CCc1nc2c(NC(=O)c3cccc(Br)c3)cccn2n1`, the RP-LC retention time was found to be 951 s. The same measure for `CNC(=O)[C@@H]1CN(S(=O)(=O)C(C)C)C[C@H]1COC`: 579 s. The same measure for `Cc1ccc(C(N)=Nc2ccccc2)cc1`: 650 s; for `CCSc1nnc(NC(=O)CSc2nncn2C)s1`: 606 s; for `CC(C)NC(=O)C1CCCN(c2nc3ncn(CC(=O)NCc4cccs4)c(=O)c3s2)C1` (stereo not given): 660 s.

For `CCc1ccc(OCc2nc(CCN(C)C(=O)Cc3cccs3)no2)cc1`, the RP-LC retention time came to 1000 s. The same measure for `COc1ccc(NS(=O)(=O)c2cc3n(c2)CCN(C(C)C)C3=O)cc1Cl`: 775 s; for `O=C(CCn1nnc2cc(-c3noc(/C=C/c4ccccc4)n3)ccc21)N1CCCC1`: 954 s. The same measure for `O=C(NC1CC1)C1CCN(S(=O)(=O)c2cc(-c3noc(C4CC4)n3)cs2)CC1`: 790 s. The same measure for `CN(C)c1ccc(/C=C/C(=O)c2ccccc2)cc1Br`: 1170 s; for `Cc1ccc(Cl)cc1NC(=O)c1[nH]c(C)c(S(=O)(=O)N2CCCC2)c1C`: 949 s.

`COc1cc(OC)cc(C(=O)Nc2cc(-c3cn4cccnc4n3)ccc2OC)c1` registered an RP-LC retention time of 708 s. With `CCc1ccc(OCCS(=O)(=O)Nc2cc(NC(C)=O)ccc2OC)cc1` the figure was 808 s; with `O=C(NCc1ccco1)C1CCN(S(=O)(=O)c2cc(C(=O)N3CCCC3)cs2)CC1`, 715 s; with `O=C(c1ccsc1)N1CCN(c2ncnc3c2CCC3)CC1`, 557 s. On to `CCc1nnc([C@@H]2CC(F)(F)CN2C(=O)c2ccc3nc[nH]c3c2)o1`, for which the RP-LC retention time was found to be 540 s.

`Cc1ccc(NC(=O)N2CCCC2c2nc(-c3ccc(F)cc3F)no2)cc1` (stereo not given) yielded an RP-LC retention time of 972 s.

The molecule `O=C([C@@H]1C[C@H](F)CN1C(=O)c1ccccc1Cl)N1CCOCC1` came in with an RP-LC retention time of 619 s. The same measure for `O=S(=O)(Cc1ccccc1F)N1CCCC(Cn2c(C3CC3)nc3cccnc32)C1` (stereo not given): 732 s; for `Cc1nn(-c2nc(CC(=O)N3CCCCC3)cs2)c(C)c1Cl`: 1050 s; for `Cc1ccc(Cn2c(=O)c(N3CCN(C(=O)NCC4CCCO4)CC3)nc3cccnc32)cc1` (stereo not given): 935 s. The same measure for `Cc1ccc2c(c1)N(Cc1ccccc1)N=C(C(=O)N1CCC(C)CC1)S2(=O)=O`: 1080 s. The same measure for `O=C(NCc1cccc(Br)c1)c1cn2nc(Cl)ccc2n1`: 867 s; for `COc1ccccc1NC(=O)C1CCCN(S(=O)(=O)c2c[nH]c(C(=O)N3CCCCCC3)c2)C1` (stereo not given): 898 s. On to `O=S(=O)(c1ccccc1)N1CCC(Cc2nncn2-c2ccccc2)C1` (stereo not given), for which the RP-LC retention time amounted to 709 s.

As to `CCC1Oc2ccc(S(=O)(=O)N3CCC(C(=O)NCc4ccccc4C)CC3)cc2NC1=O` (stereo not given), the RP-LC retention time stood at 872 s.
